Test results reported in ChEMBL document CHEMBL4837230, “Thiophene-2-carboxamide derivatives of anthraquinone: A new potent antitumor chemotype” (Eur J Med Chem, 2021).
Calls of active or inactive are those of the source. The calls are words filed in the database; no cut-off is given here.

Key:
[1] = Cytotoxicity in human DND41 cells assessed as reduction in cell viability incubated for 72 hrs by MTT assay; type: functional, cell-based; settings: DND41, 72 h
NCI-H460 = experiment: Cytotoxicity in human NCI-H460 cells assessed as reduction in cell viability incubated for 72 hrs by MTT assay; type: functional, cell-based; settings: NCI-H460, 72 h
CAPAN-1 = experiment: Cytotoxicity in human CAPAN-1 cells assessed as reduction in cell viability incubated for 72 hrs by MTT assay; type: functional, cell-based; settings: CAPAN-1, 72 h
HL-60 = experiment: Cytotoxicity in human HL-60 cells assessed as reduction in cell viability incubated for 72 hrs by MTT assay; type: functional, cell-based; settings: HL-60, 72 h
Fibroblast = experiment: Cytotoxicity in human Fibroblast cells assessed as reduction in cell viability incubated for 72 hrs by MTT assay; type: functional, cell-based
K562 [2] = experiment: Induction of cell cycle arrest in human K562 cells assessed as increase in accumulation at sub-G1 phase at 5 uM after 48 hrs by propidium iodide staining based flow cytometric analysis (reference value: 8.4%); type: functional
K562 [3] = experiment: Induction of cell cycle arrest in human K562 cells assessed as increase in accumulation at sub-G1 phase at 5 uM after 24 hrs by propidium iodide staining based flow cytometric analysis (reference value: 8.4%); type: functional
K562 [4] = experiment: Induction of cell cycle arrest in human K562 cells assessed as increase in accumulation at sub-G1 phase at 2.5 uM after 48 hrs by propidium iodide staining based flow cytometric analysis (reference value: 8.4%); type: functional
K562 [5] = experiment: Induction of cell cycle arrest in human K562 cells assessed as increase in accumulation at sub-G1 phase at 2.5 uM after 24 hrs by propidium iodide staining based flow cytometric analysis (reference value: 8.4%); type: functional
K562 [6] = experiment: Induction of cell cycle arrest in human K562 cells assessed as increase in accumulation at sub-G1 phase at 0.5 uM after 48 hrs by propidium iodide staining based flow cytometric analysis (reference value: 8.4%); type: functional
K562 [7] = experiment: Induction of cell cycle arrest in human K562 cells assessed as increase in accumulation at sub-G1 phase at 0.5 uM after 24 hrs by propidium iodide staining based flow cytometric analysis (reference value: 8.4%); type: functional
HeLa = experiment: Cytotoxicity in human HeLa cells assessed as reduction in cell viability incubated for 72 hrs by MTT assay; type: functional, cell-based
HCT-116 [8] = experiment: Cytotoxicity in human HCT-116 cells assessed as reduction in cell viability incubated for 72 hrs by MTT assay; type: functional, cell-based; settings: HCT-116, 72 h
HCT-116 [9] = experiment: Cytotoxicity against p53 knock out human HCT-116 cells assessed as reduction in cell viability incubated for 72 hrs by MTT assay; type: functional, cell-based; settings: HCT-116, 72 h
[10] = Cytotoxicity in human K562/4 cells assessed as reduction in cell viability incubated for 72 hrs by MTT assay; type: functional, cell-based; settings: K562/4, 72 h
[11] = Resistance index, ratio of IC50 for cytotoxicity against p53 knock out human HCT-116 cells to IC50 for cytotoxicity against human HCT-116 cells; type: functional
[12] = Resistance index, ratio of IC50 for cytotoxicity against human K562/4 cells to IC50 for cytotoxicity against human K562 cells; type: functional
Calf thymus DNA = experiment: Binding affinity to calf thymus double strand DNA incubated for 5 mins by spectrophotometry; type: nucleic-acid assay; settings: Bos taurus
[13] = target: T1, DNA topoisomerase 1 (Homo sapiens) (UniProt P11387); experiment: Inhibition of topoisomerase 1 (unknown origin) assessed as relaxation of supercoiled plasmid pBR322 DNA at 1 to 5 uM incubated for 30 mins by electrophoresis; settings: dose 1-5 µM
T1 sequence (whole entry): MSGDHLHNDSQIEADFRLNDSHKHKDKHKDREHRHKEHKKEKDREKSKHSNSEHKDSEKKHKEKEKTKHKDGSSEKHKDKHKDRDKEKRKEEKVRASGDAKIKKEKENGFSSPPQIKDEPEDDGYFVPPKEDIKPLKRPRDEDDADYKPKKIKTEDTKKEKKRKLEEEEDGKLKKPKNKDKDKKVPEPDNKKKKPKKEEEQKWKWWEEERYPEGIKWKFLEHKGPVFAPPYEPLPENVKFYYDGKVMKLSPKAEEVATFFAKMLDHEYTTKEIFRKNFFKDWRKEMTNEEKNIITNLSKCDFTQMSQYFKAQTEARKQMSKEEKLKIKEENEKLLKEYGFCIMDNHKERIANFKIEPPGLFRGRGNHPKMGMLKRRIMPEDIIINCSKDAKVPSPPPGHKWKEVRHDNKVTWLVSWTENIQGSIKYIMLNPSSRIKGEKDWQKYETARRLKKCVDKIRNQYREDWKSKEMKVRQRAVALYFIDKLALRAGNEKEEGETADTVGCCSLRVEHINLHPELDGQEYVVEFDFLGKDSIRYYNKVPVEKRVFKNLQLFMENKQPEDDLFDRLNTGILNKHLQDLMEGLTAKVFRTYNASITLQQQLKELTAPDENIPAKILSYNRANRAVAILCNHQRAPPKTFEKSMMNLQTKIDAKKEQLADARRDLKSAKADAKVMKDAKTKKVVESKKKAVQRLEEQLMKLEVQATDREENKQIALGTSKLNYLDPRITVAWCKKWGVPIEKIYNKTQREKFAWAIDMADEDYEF

K562 [14] = experiment: Induction of mitochondrial membrane potential loss in human K562 cells at 7.5 uM after 6 hrs by Mitotracker Red dye based flow cytometric analysis; type: functional, cell-based
[15] = Drug localization in cytoplasm of mouse NIH3T3 cells at 1 uM incubated for 5 to 60 mins by laser confocal microscopy; type: ADME, cell-based; settings: nih3t3, 1 µM, time 5-60 min
[16] = Drug localization in lysosome of mouse NIH3T3 cells at 1 uM incubated for 5 mins by lyso-tracker red based confocal microscopic method; type: ADME, cell-based; settings: nih3t3, 5 min
[17] = Drug localization in lysosome of mouse NIH3T3 cells at 1 uM incubated for 60 mins by lyso-tracker red based confocal microscopic method; type: ADME, cell-based; settings: nih3t3, 1 h
[18] = Drug localization in mitochondria of mouse NIH3T3 cells at 1 uM measured after 60 mins by MitoTracker red based confocal microscopic method; type: ADME; settings: nih3t3, 1 h
K562 [19] = experiment: Induction of apoptosis in human K562 cells assessed as activation of casapse-3 cleavage measured after 24 hrs by Western blot analysis; type: functional, cell-based; settings: dose 2.5 µM
K562 [20] = experiment: Induction of apoptosis in human K562 cells assessed as activation of casapse-9 cleavage measured after 24 hrs by Western blot analysis; type: functional, cell-based
K562 [21] = experiment: Induction of apoptosis in human K562 cells assessed as activation of PARP cleavage measured after 24 hrs by Western blot analysis; type: functional, cell-based
[22] = Drug localization in nuclei of mouse NIH3T3 cells at 1 uM incubated for 5 to 60 mins by Hoechst 33258 staining based laser confocal microscopy; type: ADME, cell-based; settings: nih3t3, 1 µM, time 5-60 min
[23] = Drug localization in mitochondria of mouse NIH3T3 cells at 1 uM measured after 5 mins by MitoTracker red based confocal microscopic method; type: ADME; settings: nih3t3, 5 min
K562 [24] = experiment: Induction of ROS generation in human K562 cells at 5 uM after 30 to 60 mins by Deep Red dye based flow cytometry method; type: functional, cell-based; settings: time 30-60 min

SMILES: O=C(N[C@H]1CCNC1)c1cc2c(O)c3c(c(O)c2s1)C(=O)c1ccccc1C3=O
- IC50 [1]: 1000 nM
- IC50 (NCI-H460): 3500 nM
- IC50 (CAPAN-1): 6300 nM
- IC50 (HL-60): 2900 nM

SMILES: O=C(NC1CCNCC1)c1cc2c(O)c3c(c(O)c2s1)C(=O)c1ccccc1C3=O
- IC50 [1]: 1600 nM
- IC50 (NCI-H460): 1400 nM
- IC50 (CAPAN-1): 600 nM
- IC50 (HL-60): 3200 nM

SMILES: Cc1c(C(=O)N2CC[C@H](N)C2)sc2c(O)c3c(c(O)c12)C(=O)c1ccccc1C3=O
- IC50 [1]: 1600 nM
- IC50 (NCI-H460): 5000 nM
- IC50 (CAPAN-1): 2200 nM
- IC50 (HL-60): 200 nM

SMILES: N[C@H]1CCN(C(=O)c2csc3c(O)c4c(c(O)c23)C(=O)c2ccccc2C4=O)C1
- IC50 [1]: 2600 nM

SMILES: NCCNC(=O)c1cc2c(O)c3c(c(O)c2s1)C(=O)c1ccccc1C3=O
- IC50 [1]: 3700 nM
- IC50 (NCI-H460): 8300 nM
- IC50 (CAPAN-1): > 20000 nM
- IC50 (HL-60): > 20000 nM

SMILES: O=C(NC1CN2CCC1CC2)c1cc2c(O)c3c(c(O)c2s1)C(=O)c1ccccc1C3=O (stereo not drawn)
- IC50 [1]: 2400 nM
- IC50 (NCI-H460): > 20000 nM
- IC50 (CAPAN-1): 4600 nM
- IC50 (HL-60): 7300 nM

SMILES: COc1cccc2c1C(=O)c1c(O)c3c(c(O)c1C2=O)C[C@@](O)(C(=O)CO)C[C@@H]3O[C@H]1C[C@H](N)[C@H](O)[C@H](C)O1 [DOXORUBICIN]
- IC50 [1]: 700 nM
- IC50 (NCI-H460): 400 nM
- IC50 (CAPAN-1): 1700 nM
- IC50 (Fibroblast): 200 nM

SMILES: NCCN(CCN)C(=O)c1cc2c(O)c3c(c(O)c2s1)C(=O)c1ccccc1C3=O
- IC50 [1]: 3100 nM
- IC50 (NCI-H460): 8300 nM
- IC50 (CAPAN-1): 16800 nM
- IC50 (HL-60): 14100 nM

SMILES: NC1CCCN(C(=O)c2cc3c(O)c4c(c(O)c3s2)C(=O)c2ccccc2C4=O)C1 (racemic)
- IC50 [1]: 600 nM
- IC50 (NCI-H460): 400 nM
- IC50 (CAPAN-1): 1200 nM
- IC50 (HL-60): 400 nM

SMILES: N[C@H]1CCN(C(=O)c2cc3c(O)c4c(c(O)c3o2)C(=O)c2ccccc2C4=O)C1
- IC50 [1]: 1500 nM
- IC50 (NCI-H460): > 20000 nM
- IC50 (CAPAN-1): > 20000 nM
- Activity (K562 [2]): 48.7%
- Activity (K562 [3]): 40.2%
- Activity (K562 [4]): 23%
- Activity (K562 [5]): 24.2%
- Activity (K562 [6]): 7%
- Activity (K562 [7]): 14.8%
- IC50 (HL-60): 700 nM
- IC50 (HeLa): > 50000 nM
- IC50 (HCT-116 [8]): > 50000 nM
- IC50 (HCT-116 [9]): > 50000 nM
- IC50 [10]: 600 nM
- IC50 (Fibroblast): > 50000 nM
- Ratio [11]: 1
- Ratio [12]: 1.2
- Activity (Calf thymus DNA): Active
- inhibition [13]: Active
- Activity (K562 [14]): inactive
- Drug uptake [15]: Active
- Drug uptake [16]: Active
- Drug uptake [17]: Active
- Drug uptake [18]: Not Active
- Activity (K562 [19]): inactive
- Activity (K562 [20]): inactive
- Activity (K562 [21]): inactive
- Drug uptake [22]: Not Active
- Drug uptake [23]: Not Active
- Activity (K562 [24]): inactive

SMILES: N[C@@H]1CN(C(=O)c2cc3c(O)c4c(c(O)c3s2)C(=O)c2ccccc2C4=O)C[C@H]1N
- IC50 [1]: 10900 nM
- IC50 (NCI-H460): 16100 nM
- IC50 (CAPAN-1): > 20000 nM
- IC50 (HL-60): > 20000 nM

SMILES: O=C(NC1CCCNC1)c1cc2c(O)c3c(c(O)c2s1)C(=O)c1ccccc1C3=O (racemic)
- IC50 [1]: 1000 nM
- IC50 (NCI-H460): 1400 nM
- IC50 (CAPAN-1): 2300 nM
- IC50 (HL-60): 1100 nM

SMILES: N[C@@H]1CCN(C(=O)c2cc3c(O)c4c(c(O)c3s2)C(=O)c2ccccc2C4=O)C1
- IC50 [1]: 400 nM
- IC50 (NCI-H460): 400 nM
- IC50 (CAPAN-1): 1500 nM
- IC50 (HL-60): 1100 nM

SMILES: Cc1c(C(=O)N2CC[C@@H](N)C2)sc2c(O)c3c(c(O)c12)C(=O)c1ccccc1C3=O
- IC50 [1]: 1400 nM
- IC50 (NCI-H460): 1200 nM
- IC50 (CAPAN-1): 2000 nM
- IC50 (HL-60): 1800 nM

SMILES: O=C(N[C@@H]1CCNC1)c1cc2c(O)c3c(c(O)c2s1)C(=O)c1ccccc1C3=O
- IC50 [1]: 1300 nM
- IC50 (NCI-H460): 4100 nM
- IC50 (CAPAN-1): 5800 nM
- IC50 (HL-60): 2700 nM
